The record followed here is US20260365646A1, “AKT1 MODULATORS” (Alterome Therapeutics, Inc., priority 2022, published 2026).

T1 sequence (P31749 whole entry E17K): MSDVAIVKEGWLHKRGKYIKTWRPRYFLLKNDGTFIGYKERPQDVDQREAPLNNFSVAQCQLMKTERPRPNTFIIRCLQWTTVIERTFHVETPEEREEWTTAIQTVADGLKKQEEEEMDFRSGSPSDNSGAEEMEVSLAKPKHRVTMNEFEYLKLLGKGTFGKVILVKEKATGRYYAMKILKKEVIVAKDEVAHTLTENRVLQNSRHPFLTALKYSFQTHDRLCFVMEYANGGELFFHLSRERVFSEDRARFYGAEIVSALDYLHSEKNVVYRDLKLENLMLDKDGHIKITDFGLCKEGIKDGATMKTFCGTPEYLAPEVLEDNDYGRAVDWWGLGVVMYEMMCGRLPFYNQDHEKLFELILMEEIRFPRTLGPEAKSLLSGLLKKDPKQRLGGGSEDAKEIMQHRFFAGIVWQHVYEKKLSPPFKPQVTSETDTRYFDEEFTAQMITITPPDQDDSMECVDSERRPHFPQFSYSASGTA

The first assay addresses T1, full length AKT E17K (Homo sapiens, UniProt P31749, E17K).
T1 construct: host or cells: HEK-293 (ATCC CRL-1573)
Kind of assay: NanoBRET Target Engagement (TE) Intracellular Kinase Assay. It is filed as cell-based.
Settings: not given
The procedure, abridged: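 Live-cell BRET assay: cells expressing NanoLuc-fused full-length AKT E17K incubated 2 h with tracer at target-optimized concentration plus compound. BRET read at 450 nm donor/600 nm acceptor with extracellular NanoLuc inhibitor. EC50 from sigmoidal variable-slope fit of tracer displacement.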
In turn, `COc1c(N2CCN(Cc3ccc(-n4c(-c5cccnc5N)nc5cc(-c6ccccc6)cnc54)cc3)CC2)c(=O)c1=O` [Example 9, 3-(4-(4-(2-(2-Aminopyridin-3-yl)-6-phenyl-3H-imidazo[4,5-b]pyridin-3-yl)benzyl)piperazin-1-yl)-4-methoxycyclobut-3-ene-1,2-dione] had a half-maximal effective concentration (EC50) of 60 to 600 nM.

`Nc1ncccc1-c1nc2ccc(-c3ccccc3)nc2n1-c1ccc(CNc2c(O)c(=O)c2=O)cc1` [Example 5, 3-((4-(2-(2-Aminopyridin-3-yl)-5-phenyl-3H-imidazo[4,5-b]pyridin-3-yl)benzyl)amino)-4-hydroxycyclobut-3-ene-1,2-dione]: the half-maximal effective concentration (EC50) is greater than 600 nM.

As for `CN(c1c(S)c(=O)c1=O)C1CCN(Cc2ccc(-n3c(-c4cccnc4N)nc4ccc(-c5ccccc5)nc43)cc2)CC1` [Example 46, 3-((1-(4-(2-(2-aminopyridin-3-yl)-5-phenyl-3H-imidazo[4,5-b]pyridin-3-yl)benzyl)piperidin-4-yl)(methyl)amino)-4-mercaptocyclobut-3-ene-1,2-dione], the EC50 was greater than 600 nM.

As for `COc1c(N2C3CCC2CN(Cc2ccc(-n4c(-c5cccnc5N)nc5ccc(-c6ccccc6)nc54)cc2)C3)c(=O)c1=O` [Example 72, 3-(3-(4-(2-(2-aminopyridin-3-yl)-5-phenyl-3H-imidazo[4,5-b]pyridin-3-yl)benzyl)-3,8-diazabicyclo[3.2.1]octan-8-yl)-4-methoxycyclobut-3-ene-1,2-dione], the half-maximal effective concentration (EC50) was 60 to 600 nM.

With `COc1c(N2CCC3(CCN(Cc4ccc(-n5c(-c6cccnc6N)nc6ccc(-c7ccccc7)nc65)cc4)CC3)C2)c(=O)c1=O` [Example 54, 3-(8-(4-(2-(2-Aminopyridin-3-yl)-5-phenyl-3H-imidazo[4,5-b]pyridin-3-yl)benzyl)-2,8-diazaspiro[4.5]decan-2-yl)-4-methoxycyclobut-3-ene-1,2-dione], the EC50 was 15 to 60 nM.

In the case of `COc1c(N2CCN(Cc3ccc(-n4c(-c5cccnc5N)nc5ccc(-c6ccccc6)nc54)cc3)C[C@@H]2CO)c(=O)c1=O` [Example 79, (R)-3-(4-(4-(2-(2-aminopyridin-3-yl)-5-phenyl-3H-imidazo[4,5-b]pyridin-3-yl)benzyl)-2-(hydroxymethyl)piperazin-1-yl)-4-methoxycyclobut-3-ene-1,2-dione], the EC50 fell in the range of 60 to 600 nM.

On to `Nc1ncccc1-c1nc2ccc(-c3ccccc3)nc2n1-c1ccc(CN2CCC(Nc3c(OC4CCCC4)c(=O)c3=O)CC2)cc1` [Example 14, 3-((1-(4-(2-(2-Aminopyridin-3-yl)-5-phenyl-3H-imidazo[4,5-b]pyridin-3-yl)benzyl)piperidin-4-yl)amino)-4-(cyclopentyloxy)cyclobut-3-ene-1,2-dione], for which the concentration giving a half-maximal response (EC50) lay within 60 to 600 nM.

As to `Nc1ncccc1-c1nc2ccc(-c3ccccc3)nc2n1-c1ccc(CN2CCN(c3c(O)c(=O)c3=O)CC2)cc1` [Example 22, 3-(4-(4-(2-(2-Aminopyridin-3-yl)-5-phenyl-3H-imidazo[4,5-b]pyridin-3-yl)benzyl)piperazin-1-yl)-4-hydroxycyclobut-3-ene-1,2-dione], the half-maximal effective concentration (EC50) is greater than 600 nM.

For the compound `COc1c(N[C@@H]2CCN(Cc3ccc(-n4c(-c5cccnc5N)nc5ccc(-c6ccccc6)nc54)cc3)C2)c(=O)c1=O` [Example 50, (R)-3-((1-(4-(2-(2-Aminopyridin-3-yl)-5-phenyl-3H-imidazo[4,5-b]pyridin-3-yl)benzyl)pyrrolidin-3-yl)amino)-4-methoxycyclobut-3-ene-1,2-dione], the EC50 lay within 15 to 60 nM.

Regarding `COc1c(NC2CCN(Cc3ccc(-n4c(-c5cccnc5N)nc5cccnc54)cc3)CC2)c(=O)c1=O` [Example 3, 3-((1-(4-(2-(2-Aminopyridin-3-yl)-3H-imidazo[4,5-b]pyridin-3-yl)benzyl)piperidin-4-yl)amino)-4-methoxycyclobut-3-ene-1,2-dione], the EC50 lay within 15 to 60 nM.

Take `COc1c(N2CCN(Cc3ccc(-n4c(-c5cccnc5N)nc5ccc(-c6cccc(NC(C)=O)c6)nc54)cc3)CC2)c(=O)c1=O` [Example 7, N-(3-(2-(2-Aminopyridin-3-yl)-3-(4-((4-(2-methoxy-3,4-dioxocyclobut-1-en-1-yl)piperazin-1-yl)methyl)phenyl)-3H-imidazo[4,5-b]pyridin-5-yl)phenyl)acetamide]: the half-maximal effective concentration (EC50) was 15 to 60 nM.

Consider `Nc1ncccc1-c1nc2ccc(-c3ccccc3)nc2n1-c1ccc(CN2CCC(N3CCCOc4c3c(=O)c4=O)C2)cc1` (stereo not shown) [Example 82, 6-(1-(4-(2-(2-aminopyridin-3-yl)-5-phenyl-3H-imidazo[4,5-b]pyridin-3-yl)benzyl)pyrrolidin-3-yl)-2-oxa-6-azabicyclo[5.2.0]non-1(7)-ene-8,9-dione], for which the EC50 lay within 60 to 600 nM.

`COc1c(N2CCC(NCc3ccc(-n4c(-c5cccnc5N)nc5ccc(-c6ccccc6)nc54)cc3)CC2)c(=O)c1=O` [Example 77, 3-(4-((4-(2-(2-aminopyridin-3-yl)-5-phenyl-3H-imidazo[4,5-b]pyridin-3-yl)benzyl)amino)piperidin-1-yl)-4-methoxycyclobut-3-ene-1,2-dione] displayed a concentration giving a half-maximal response (EC50) of 15 to 60 nM.

For the compound `COc1c(N2[C@H](C)CN(Cc3ccc(-n4c(-c5cccnc5N)nc5ccc(-c6ccccc6)nc54)cc3)C[C@@H]2C)c(=O)c1=O` [Example 68, 3-((2S,6R)-4-(4-(2-(2-aminopyridin-3-yl)-5-phenyl-3H-imidazo[4,5-b]pyridin-3-yl)benzyl)-2,6-dimethylpiperazin-1-yl)-4-methoxycyclobut-3-ene-1,2-dione], the EC50 was in the range of 60 to 600 nM.

As for `Nc1ncccc1-c1nc2ccc(-c3ccccc3)nc2n1-c1ccc(CN2CCN3c4c(c(=O)c4=O)OCC[C@H]3C2)cc1` [Example 89, (S)-7-(4-(2-(2-aminopyridin-3-yl)-5-phenyl-3H-imidazo[4,5-b]pyridin-3-yl)benzyl)-5,5a,6,7,8,9-hexahydro-4H-cyclobuta[b]pyrazino[1,2-d][1,4]oxazepine-1,2-dione], the half-maximal effective concentration (EC50) was greater than 600 nM.

The compound `COc1c(N2CCC3(CN(Cc4ccc(-n5c(-c6cccnc6N)nc6ccc(-c7ccccc7)nc65)cc4)C3)C2)c(=O)c1=O` [Example 42, 3-(2-(4-(2-(2-Aminopyridin-3-yl)-5-phenyl-3H-imidazo[4,5-b]pyridin-3-yl)benzyl)-2,6-diazaspiro[3.4]octan-6-yl)-4-methoxycyclobut-3-ene-1,2-dione] registered an EC50 of 15 to 60 nM.

`Nc1ncccc1-c1nc2ccc(-c3ccccc3)nc2n1-c1ccc(CN2CCC(Nc3c(OC4CCCC4)c(=S)c3=O)CC2)cc1` [Example 15, 2-((1-(4-(2-(2-Aminopyridin-3-yl)-5-phenyl-3H-imidazo[4,5-b]pyridin-3-yl)benzyl)piperidin-4-yl)amino)-3-(cyclopentyloxy)-4-thioxocyclobut-2-en-1-one] came in with an EC50 of 60 to 600 nM.

`COc1c(N2CCN(Cc3ccc(-n4c(-c5cccnc5N)nc5cccnc54)cc3)CC2)c(=O)c1=O` [Example 1, 3-(4-(4-(2-(2-Aminopyridin-3-yl)-3H-imidazo[4,5-b]pyridin-3-yl)benzyl)piperazin-1-yl)-4-methoxycyclobut-3-ene-1,2-dione] showed a 50% effective concentration (EC50) greater than 600 nM.

In turn, `[2H]C([2H])([2H])Oc1c(N2CCN(Cc3ccc(-n4c(-c5cccnc5N)nc5ccc(-c6ccccc6)nc54)cc3)CC2)c(=O)c1=O` [Example 23, 3-(4-(4-(2-(2-Aminopyridin-3-yl)-5-phenyl-3H-imidazo[4,5-b]pyridin-3-yl)benzyl)piperazin-1-yl)-4-(methoxy-d3)cyclobut-3-ene-1,2-dione] displayed a 50% effective concentration (EC50) of 15 to 60 nM.

Staying with this assay, now noted: read-out: NanoBRET AKT1E17K EC50; HEK-293 cells transfected with NanoLuc-AKT E17K; competitive displacement of NanoBRET tracer; 2 hr equilibration; 10-point 3-fold dilution.
For the compound `COc1c(N(CCO)C2CCN(Cc3ccc(-n4c(-c5cccnc5N)nc5ccc(-c6ccccc6)nc54)cc3)CC2)c(=O)c1=O` [Example 48, 3-((1-(4-(2-(2-Aminopyridin-3-yl)-5-phenyl-3H-imidazo[4,5-b]pyridin-3-yl)benzyl)piperidin-4-yl)(2-hydroxyethyl)amino)-4-methoxycyclobut-3-ene-1,2-dione], the concentration for a half-maximal effect (EC50) is less than 15 nM.

Take `CCOc1c(N2CC3(CN(Cc4ccc(-n5c(-c6cccnc6N)nc6ccc(-c7ccccc7)nc65)cc4)C3)C2)c(=O)c1=O` [Example 40, 3-(6-(4-(2-(2-Aminopyridin-3-yl)-5-phenyl-3H-imidazo[4,5-b]pyridin-3-yl)benzyl)-2,6-diazaspiro[3.3]heptan-2-yl)-4-ethoxycyclobut-3-ene-1,2-dione]: the EC50 is less than 15 nM.

Turning to `COc1c(N2CC3(CCN(Cc4ccc(-n5c(-c6cccnc6N)nc6ccc(-c7ccccc7)nc65)cc4)CC3)C2)c(=O)c1=O` [Example 53, 3-(7-(4-(2-(2-Aminopyridin-3-yl)-5-phenyl-3H-imidazo[4,5-b]pyridin-3-yl)benzyl)-2,7-diazaspiro[3.5]nonan-2-yl)-4-methoxycyclobut-3-ene-1,2-dione], the EC50 was less than 15 nM.

As to `COc1c(NC2CCN(Cc3ccc(-n4c(-c5cccnc5N)nc5cc(-c6ccccc6)cnc54)cc3)CC2)c(=O)c1=O` [Example 10, 3-((1-(4-(2-(2-Aminopyridin-3-yl)-6-phenyl-3H-imidazo[4,5-b]pyridin-3-yl)benzyl)piperidin-4-yl)amino)-4-methoxycyclobut-3-ene-1,2-dione], the EC50 was less than 15 nM.

Regarding `COc1c(N2CCC(OCc3ccc(-n4c(-c5cccnc5N)nc5ccc(-c6ccccc6)nc54)cc3)CC2)c(=O)c1=O` [Example 78, 3-(4-((4-(2-(2-aminopyridin-3-yl)-5-phenyl-3H-imidazo[4,5-b]pyridin-3-yl)benzyl)oxy)piperidin-1-yl)-4-methoxycyclobut-3-ene-1,2-dione], the half-maximal effective concentration (EC50) was less than 15 nM.

Turning to `COc1c(N2CC3CCC(C2)N3Cc2ccc(-n3c(-c4cccnc4N)nc4ccc(-c5ccccc5)nc43)cc2)c(=O)c1=O` [Example 71, 3-(8-(4-(2-(2-aminopyridin-3-yl)-5-phenyl-3H-imidazo[4,5-b]pyridin-3-yl)benzyl)-3,8-diazabicyclo[3.2.1]octan-3-yl)-4-methoxycyclobut-3-ene-1,2-dione], the half-maximal effective concentration (EC50) was less than 15 nM.
